Data: US11485736B2 (KSQ Therapeutics, Inc., priority 2018, dated 2022)

Molecular target: USP1/UAF1 (Homo sapiens (Human), UniProt O94782)
Experiment: Deubiquitination assay for USP1/UAF1 activity (ubiquitin-rhodamine 110)
Format: biochemical
Conditions: 0.05 nM USP1/UAF1, 150 nM ubiquitin-rhodamine
Method: Certain Compounds of the Disclosure were assessed for USP1/UAF1 activity in a Ubiquitin Rhodamine assay modified from those described previously.
Deubiquitinase activity was measured using ubiquitin-rhodamine 110 as a substrate. Cleavage of the amide bond between rhodamine and the c-terminal glycine of ubiquitin yields an increase in fluorescence signal. The assay was conducted in 20 ul total volume of assay buffer (50 mM Tris-HCl, pH 7.8, 0.5 mM EDTA, 0.01% Bovine Serum Albumin, 1 mM DTT, 0.01% Tween-20), and 0.05 nM USP1/UAF1 enzyme.
Compounds, dissolved in DMSO were tested in dose response format, beginning at 10 uM.
Compounds depicted below were added to enzyme/assay buffer mix and incubated 10 min.
Data for all assay formats was calculated as percent inhibition compared with control wells. […] IC50 values were calculated using the standard four parameter curve fitting algorithm in either Prism GraphPad (La Jolla, Calif.) software, or Collaborative Drug Discovery (Burlingame, Calif.) CDD Vault.

Sequence of USP1/UAF1 (O94782 whole entry): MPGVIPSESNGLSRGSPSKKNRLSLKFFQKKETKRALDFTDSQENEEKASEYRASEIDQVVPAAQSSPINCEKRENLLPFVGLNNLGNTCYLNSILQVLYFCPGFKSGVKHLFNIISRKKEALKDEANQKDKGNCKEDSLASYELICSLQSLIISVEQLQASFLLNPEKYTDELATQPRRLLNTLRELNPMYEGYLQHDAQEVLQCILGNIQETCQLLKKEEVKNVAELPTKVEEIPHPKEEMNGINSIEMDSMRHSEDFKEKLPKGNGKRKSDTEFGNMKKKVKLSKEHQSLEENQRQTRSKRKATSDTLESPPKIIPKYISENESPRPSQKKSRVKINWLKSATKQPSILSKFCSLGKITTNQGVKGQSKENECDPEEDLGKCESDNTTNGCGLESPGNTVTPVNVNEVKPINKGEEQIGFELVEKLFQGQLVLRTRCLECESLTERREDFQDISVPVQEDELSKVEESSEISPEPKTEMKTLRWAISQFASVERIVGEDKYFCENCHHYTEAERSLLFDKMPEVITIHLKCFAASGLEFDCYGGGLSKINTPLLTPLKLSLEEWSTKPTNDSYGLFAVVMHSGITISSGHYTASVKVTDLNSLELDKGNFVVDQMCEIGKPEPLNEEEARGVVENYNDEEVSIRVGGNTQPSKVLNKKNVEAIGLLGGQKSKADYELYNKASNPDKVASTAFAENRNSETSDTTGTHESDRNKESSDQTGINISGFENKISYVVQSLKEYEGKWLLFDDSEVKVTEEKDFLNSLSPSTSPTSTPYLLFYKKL
Sequence of USP1/UAF1 (Q8TAF3 whole entry partner): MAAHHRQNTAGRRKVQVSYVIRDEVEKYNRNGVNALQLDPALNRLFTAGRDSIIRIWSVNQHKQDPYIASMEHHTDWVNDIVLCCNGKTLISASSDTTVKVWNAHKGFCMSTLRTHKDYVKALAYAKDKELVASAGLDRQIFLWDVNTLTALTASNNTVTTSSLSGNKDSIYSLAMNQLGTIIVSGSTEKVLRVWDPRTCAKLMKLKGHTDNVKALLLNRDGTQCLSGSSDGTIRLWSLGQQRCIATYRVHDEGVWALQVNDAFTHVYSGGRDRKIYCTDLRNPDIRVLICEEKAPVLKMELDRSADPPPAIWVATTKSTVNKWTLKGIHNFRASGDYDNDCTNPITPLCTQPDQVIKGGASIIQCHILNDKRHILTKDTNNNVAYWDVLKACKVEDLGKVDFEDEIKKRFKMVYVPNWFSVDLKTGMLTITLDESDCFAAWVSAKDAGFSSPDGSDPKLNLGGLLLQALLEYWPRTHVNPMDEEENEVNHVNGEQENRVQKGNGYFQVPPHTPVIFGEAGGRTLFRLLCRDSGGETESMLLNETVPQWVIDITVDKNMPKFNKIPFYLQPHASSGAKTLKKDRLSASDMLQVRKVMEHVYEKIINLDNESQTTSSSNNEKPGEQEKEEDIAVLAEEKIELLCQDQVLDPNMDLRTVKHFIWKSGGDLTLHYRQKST

| IC50 (Table 4) | IC50 (Table 3) | SMILES | further results |
| --- | --- | --- | --- |
| 10 to 100 nM | – | COc1ncnc(C2CC2)c1-c1ncc2c(OC)nn([C@@H](C)c3ccc(-c4nc(C(F)(F)F)c(Br)n4C)cc3)c2n1 [drawing 802] | – |
| 10 to 100 nM | – | COc1ncnc(C2CC2)c1-c1ncc2nc(C3CCC3)n(Cc3ccc(-n4nc(C(F)(F)F)cc4C)cc3)c2n1 [drawing 823] | – |
| – | 10 to 100 nM | Cc1ncnc(C(C)C)c1-c1ncc2cnn(Cc3ccc(-n4nc(C(F)(F)F)cc4C)cc3)c2n1 [drawing 776] | – |
| – | 10 to 100 nM | CCn1cc(C(F)(F)F)nc1-c1ccc(Cn2ncc3cnc(-c4c(OC)cnn4C4CC4)nc32)cc1 [drawing 761] | – |
| – | 100 to 200 nM | COc1ncnc(C)c1-c1ncc2cnn(Cc3ccc(-n4nc(C(F)(F)F)cc4OC)cc3)c2n1 | – |
| – | 10 to 100 nM | COc1ncnc(C2CC2)c1-c1ncc2cnn([C@H](C)c3ccc(-c4nc(C(F)(F)F)cn4C)cc3)c2n1 (single isomer, unassigned) [drawing 759] | – |
| – | 10 to 100 nM | [2H]C([2H])([2H])Oc1ncnc(C2CC2)c1-c1ncc2cnn(Cc3ccc(-c4nc(C(F)(F)F)cn4CC)cc3)c2n1 [drawing 744] | – |
| 10 to 100 nM | – | COc1ncnc(C2CC2)c1-c1ncc2ncn(Cc3ccc(-c4nc(C(F)(F)F)cn4C(C)C)cc3)c2n1 [drawing 818] | – |
| 100 to 200 nM | – | COc1ncnc(C2CC2)c1-c1ncc2nc(C)n(Cc3ccc(-c4nc(C(F)(F)F)cn4C)cc3)c2n1 [drawing 821] | – |
| 10 to 100 nM | – | COc1ncnc(C2CC2)c1-c1ncc2c(OC)nn(C(C)c3ccc(-c4nc(C(F)(F)F)cn4CCF)cc3)c2n1 (stereo not shown) [drawing 812] | – |
| – | 10 to 100 nM | CC(C)Oc1ncnc(C2CC2)c1-c1ncc2cnn(Cc3ccc(-c4nc(C(F)(F)F)cn4C)cc3)c2n1 [drawing 756] | – |
| 10 to 100 nM | – | COc1ncnc(C2CC2)c1-c1ncc2ccn(Cc3ccc(-c4nc(C(F)(F)F)cn4C)cc3)c2n1 [drawing 826] | – |
| – | 10 to 100 nM | CCn1cc(C(F)(F)F)nc1-c1ccc(Cn2ncc3cnc(-c4c(OC5CCC5)ncnc4C4CC4)nc32)cc1 [drawing 752] | – |
| – | – | COc1ncnc(C2CC2)c1-c1ncc2cnn(Cc3ccc(-c4nc(C(F)(F)F)cn4C)cc3)c2n1 [drawing 720] | IC50 (Table 2): 10 to 100 nM |
| – | 10 to 100 nM | COc1ncnc(C(C)(C)C)c1-c1ncc2cnn(Cc3ccc(-c4nc(C(F)(F)F)cn4C)cc3)c2n1 [drawing 757] | – |
| > 200 nM | – | COc1ncnc(C)c1-c1ncc2ncn(Cc3ccc(-n4nc(C(F)(F)F)cc4C)cc3)c2n1 | – |
| – | 10 to 100 nM | COc1ncnc(C2CC2)c1-c1ncc2cnn(Cc3ccc(-c4nc(C(F)(F)F)c[nH]4)cc3)c2n1 [drawing 765] | – |
| – | 10 to 100 nM | COc1ncnc(C2CC2)c1-c1ncc2cnn([C@@H](C)c3ccc(-c4nc(C(F)(F)F)cn4C)cc3)c2n1 (single isomer, unassigned) [drawing 743] | – |
| – | – | CC(C)c1c(F)cccc1-c1ncc2cnn(Cc3ccc(-c4nc(C(F)(F)F)cn4C)cc3)c2n1 [drawing 728] | IC50 (Table 2): < 10 nM |
| – | 10 to 100 nM | COc1ncnc(C2CC2)c1-c1ncc2cnn(Cc3ccc(-n4nc(C(F)(F)F)cc4OC)nc3)c2n1 [drawing 768] | – |
| 10 to 100 nM | – | CCn1cc(C(F)(F)F)nc1-c1ccc(Cn2nc(SC)c3cnc(-c4c(OC)ncnc4C4CC4)nc32)cc1 [drawing 800] | – |
| – | 10 to 100 nM | COc1ncnc(C2(C)CC2)c1-c1ncc2cnn(Cc3ccc(-c4nc(C(F)(F)F)cn4C)cc3)c2n1 [drawing 769] | – |
| – | > 200 nM | COCCOc1ncnc(C2CC2)c1-c1ncc2cnn(Cc3ccc(-c4nc(C(F)(F)F)cn4C)cc3)c2n1 [drawing 787] | – |
| – | – | CCS(=O)(=O)c1ccccc1-c1ncc2cnn(Cc3ccc(-c4nc(C(F)(F)F)cn4C)cc3)c2n1 [drawing 709] | IC50 (Table 2): 100 to 200 nM |
| 10 to 100 nM | – | COc1ncnc(C2CC2)c1-c1ncc2c(OC)nn([C@@H](C)c3ccc(-c4nc(C(F)(F)F)cn4CCF)cc3)c2n1 [drawing 809] | – |
| – | – | COc1ncnc(C2CC2)c1-c1ncc2cnn(Cc3ccc(-n4nc(C(F)(F)F)cc4C)cc3)c2n1 [drawing 723] | IC50 (Table 2): < 10 nM |
| < 10 nM | – | COc1ncnc(C2CC2)c1-c1ncc2ccn(Cc3ccc(-c4nc(C(F)(F)F)cn4C(C)C)cc3)c2n1 | – |
| – | 10 to 100 nM | COc1ncnc(C2CC2)c1-c1ncc2cnn(Cc3ccc(-c4nc(C(F)(F)F)cn4C)c(F)c3)c2n1 [drawing 746] | – |
